Assay results from patent publication US6034092A, “2-[2-[(2-hydroxyethyl)amino]ethy [ l]-5-[[2-methylamino)ethyl]amino]indazolo4,3-gh]isoquinolin-6(2H)-one as antitumor agent” (priority 1995, dated 2000).
≈ marks a conversion by molar mass, not a printed value. Where two headings read alike, the source gives them in different places.

What was measured:
[1] = man; cited from earlier work
[2] = tested on: P388 murine leukemia; experiment: in vivo P388 murine leukemia model, iv/iv; settings: for survival time of the treated animals (in words): P388, compared with controls (untreated animals) or with analogues
Protocol: (§1) The evaluation of the biological activity for the compound of this invention was performed "in vitro" and "in vivo" following the protocols developed by the U.S. National Cancer Institute.
Treatment was initiated approximately 24 hours after tumor transplantation and dosages of the product were administered iv according to preestablished protocols, usually at 3-day intervals. The studies were done over a 60 day period and the date of death for each animal was recorded. The % T/C was determined using the median survival time (MST) for each group according to the formula
T/C%=[(MSTtreated)/(MSTcontrols)]×100

[3] = W.H.O. grade; dose-limiting, phase I and II; cited from earlier work
[4] = tested on: human breast MX-1 tumor; experiment: in vivo human breast tumor xenograft MX-1 in mice, sc/iv; settings: MX-1 sc/iv q7dx3
Protocol: as §1
(§2) Further in vivo studies of biological activity of the compound of the invention were carried out using two human tumor xenografts, the human breast MX-1 tumor and the ovary tumor A2780 (Table II). […] The "tumor weight inhibition" can be evaluated as follows:
(§3) TWI%=100-[(average relative weight of the tumortreated /average
(§4) relative weight of the tumorcontrols)100]
(§5) By tumor regression, it is meant the reduction of the tumor mass measured 30 days after the end of the treatment compared with the tumor starting weight. Complete tumor regression means the disappearance of the tumor mass.
(§6) In vivo biological evaluation of the compound of the invention (I),
(§7) and A 2780) models in mice

[5] = tested on: ovary tumor A2780; experiment: in vivo human ovary tumor xenograft A2780 in mice, sc/iv; settings: A 2780 sc/iv q4dx3; for Tumor regression: 30 days after end of treatment
Protocol: as §1, §2, §3, §4, §5, §6, §7

[6] = tested on: human colon adenocarcinoma cell line (LoVo); experiment: in vitro cytotoxic activity, MTT assay, LoVo; format: cell-based; settings: for IC50: Homo sapiens, read-out: IC50 ± S.D.
Protocol: as §1
The evaluation of the "in vitro" cytotoxic activity was performed using a human colon adenocarcinoma cell line (Lovo) isolated from a metastatic nodule.

[7] = rat; cited from earlier work
[8] = limiting aspect; cited from earlier work
[9] = tested on: cell histotypes developing resistance already against doxorubicin; settings: doxorubicin-resistant cell histotypes, over-expression of glycoprotein P; cited from earlier work
[10] = tested on: human breast MX-1 tumor and the ovary tumor A2780; experiment: in vivo antitumor evaluation in human tumor xenografts MX-1 and A2780; parameters: species or system human tumor xenografts in mice; settings: for complete tumor regressions (in words): contrary to CI-941
Protocol: as §2, §3, §4, §5

[11] = 1 hour after treatment with the medicament

O=C1c2c(O)cccc2-c2nn(CCNCCO)c3ccc(NCCNCCO)c1c23 [CI-941]
cardiotoxicity [1]: irreversible cardiotoxicity
T/C % ([2]; P388 iv/iv + 1,4,7, 6 mg/kg): 133%
Tox. ([2]; P388 iv/iv + 1,4,7, 6 mg/kg): 0/8
T/C % ([2]; P388 iv/iv + 1,4,7, 9 mg/kg): 144%
Tox. ([2]; P388 iv/iv + 1,4,7, 9 mg/kg): 0/8
T/C % ([2]; P388 iv/iv + 1,4,7, 13.5 mg/kg): 133%
Tox. ([2]; P388 iv/iv + 1,4,7, 13.5 mg/kg): 0/8
leukopenia [3]: severe leukopenia (W.H.O. grade 3 and 4)
neutropenia [3]: neutropenia (W.H.O. grade 4)
TWI % ([4]; 9 mg/kg): 83%
Tox. ([4]; 9 mg/kg): 0/7
TWI % ([4]; 13.5 mg/kg): 93%
Tox. ([4]; 13.5 mg/kg): 0/40
TWI % ([4]; 17.5 mg/kg): 97%
Tox. ([4]; 17.5 mg/kg): 9/33
TWI % ([5]; 8 mg/kg): 87%
Tox. ([5]; 8 mg/kg): 0/7
Tumor regression ([5]; 8 mg/kg): 0/7
TWI % ([5]; 10.4 mg/kg): 97%
Tox. ([5]; 10.4 mg/kg): 0/7
Tumor regression ([5]; 10.4 mg/kg): 0/7
TWI % ([5]; 13.5 mg/kg): 100%
Tox. ([5]; 13.5 mg/kg): 5/7
Tumor regression ([5]; 13.5 mg/kg): 1/7
IC50 ([6]; 1 h): 0.039 ± 0.035 µg/mL (≈ 0.0917 µM)
nephrotoxicity [7]: marked nephrotoxicity

O=C1c2c(O)ccc(O)c2C(=O)c2c(NCCNCCO)ccc(NCCNCCO)c21 [mitoxantrone, 5,8-dihydroxy-1,4-bis{[2-(2-hydroxyethylamino)ethyly]amino]anthracene-9,10-dione]
T/C % ([2]; P388 iv/iv + 1,4,7, 3 mg/kg): 195%
Tox. ([2]; P388 iv/iv + 1,4,7, 3 mg/kg): 16/284
TWI % ([4]; 4.5 mg/kg): 74%
IC50 [6, 11]: 0.026 ± 0.017 µg/mL (≈ 0.0585 µM)
toxicity (cardiotoxicity) [8]: cardiotoxicity
toxicity (myelodepression) [8]: mielodepressive toxic effect
cross-resistance [9]: cross-resistance

COc1cccc2c1C(=O)c1c(O)c3c(c(O)c1C2=O)C[C@@](O)(C(=O)CO)C[C@@H]3O[C@H]1C[C@H](N)[C@H](O)[C@H](C)O1 [doxorubicin]
IC50 ([6]; 1 h): 0.7 ± 0.49 µg/mL (≈ 1.29 µM)

CNCCNc1ccc2c3c(nn2CCNCCO)-c2cnccc2C(=O)c13 [compound (I)]
survival time of the treated animals (in words) ([2]; listed as 2-[2-[(2-hydroxyethyl)amino]ethyl]-5-[[2-(methylamino)ethyl]amino]indazolo[4,3-g): higher increase in the average survival time of the treated animals (expressed as % T/C) than that obtained with its analogues
survival time of the treated animals (in words) ([2]; listed as compound of the invention): active in increasing the survival time of the treated animals
T/C % ([2]; P388 iv/iv + 1,4,7, 7.5 mg/kg): 167%
tolerability (in words) ([2]; compared with mitoxantrone, Table II): better tolerated than mitoxantrone
Tox. ([2]; mouse, in vivo, iv, 7.5 mg/kg): 0/8
TWI % ([4]; 8.9 mg/kg): 78%
Tox. ([4]; 8.9 mg/kg): 0/5
TWI % ([4]; 17.5 mg/kg): 96%
Tox. ([4]; 17.5 mg/kg): 0/5
TWI % ([5]; 7.5 mg/kg): 99%
Tox. ([5]; 7.5 mg/kg): 0/7
Tumor regression ([5]; 7.5 mg/kg): 4/7
TWI % ([5]; 9.7 mg/kg): 100%
Tox. ([5]; 9.7 mg/kg): 0/7
Tumor regression ([5]; 9.7 mg/kg): 6/7
IC50 [6, 11]: 0.54 ± 0.17 µg/mL (≈ 1.42 µM)
in vitro cytotoxic activity (in words) ([6]; MTT assay, compared with doxorubicin): activity comparable to doxorubicin
tumor weight inhibition (in words) ([10]; MX-1 and A2780 xenografts, compared with CI-941): activity equal if not higher than CI-941
toxic effects (in words) ([10]; tested doses): absence of toxic effects
complete tumor regressions (in words) ([10]; tested doses, listed as 2-[2-[(2-hydroxyethyl)amino]ethyl]-5-[[2-(methylamino)ethyl]amino]indazolo[4,3-g): complete regression of the tumor in a statistically significant number of animals
complete tumor regressions (in words) ([10]; tested doses, listed as compound of the invention): a significant number of complete tumor regressions

O=C1c2ccccc2C(=O)c2c(NCCNCCO)ccc(NCCNCCO)c21 [ametantrone, 4-bis{[2-(2-hydroxyethylamino)ethyl]amino]anthracene-9,10-dione]
toxicity (myelodepression) [8]: mielodepressive toxic effect
cross-resistance [9]: cross-resistance
